# According to ChEMBL document CHEMBL1201862, “PubChem BioAssay data set” (2004):
# Activity calls are given as the source filed them.
# Legend:
# [1] = target: T1, Protein skinhead-1 (Caenorhabditis elegans, UniProt P34707); assay type: functional
# T1 sequence (P34707 whole entry): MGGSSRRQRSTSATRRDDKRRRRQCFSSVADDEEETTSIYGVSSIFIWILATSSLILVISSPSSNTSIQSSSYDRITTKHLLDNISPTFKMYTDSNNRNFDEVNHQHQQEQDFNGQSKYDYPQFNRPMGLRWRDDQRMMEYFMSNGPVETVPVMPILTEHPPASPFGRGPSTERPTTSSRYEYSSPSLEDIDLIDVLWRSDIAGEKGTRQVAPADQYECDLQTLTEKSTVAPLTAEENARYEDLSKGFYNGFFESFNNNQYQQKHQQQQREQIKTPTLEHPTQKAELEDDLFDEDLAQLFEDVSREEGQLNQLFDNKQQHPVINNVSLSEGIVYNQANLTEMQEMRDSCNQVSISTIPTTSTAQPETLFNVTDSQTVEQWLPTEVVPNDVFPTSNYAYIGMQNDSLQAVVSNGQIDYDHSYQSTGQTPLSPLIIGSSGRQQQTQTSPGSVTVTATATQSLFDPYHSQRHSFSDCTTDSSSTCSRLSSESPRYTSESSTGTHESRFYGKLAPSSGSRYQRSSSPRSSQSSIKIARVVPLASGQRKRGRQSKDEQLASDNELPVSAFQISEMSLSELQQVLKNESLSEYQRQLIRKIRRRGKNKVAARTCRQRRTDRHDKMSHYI
# [2] = off-target signal loss in HeLa-CEM21 co-culture – HeLa F-luc CTL cells, cherry-picked, counter-screen for HIV-1 Env fusion inhibitor project, dose response (AID 652040); assay type: functional, cell-based;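 further: potency for signal decrease marking cytotoxic or nonspecific inhibition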
# [3] = target: Paired box protein Pax-8 (Homo sapiens, UniProt Q06710); experiment: inhibitors of PAX8-driven TPO luciferase reporter, dose response, RMG-I cells, cherry-pick (AID 687027); assay type: functional, cell-based;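 further: luciferase reporter driven by Pax8 target thyroperoxidase promoter measured by SteadyGlo luminescence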
# [4] = growth suppression of PTEN-null colon cells, dose response, cell-based, HCT116 PTEN knockout (AID 1047); assay type: functional;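 further: HCT116 colon tumor cells with PTEN knocked out; cells exposed to compound for 60 hours before readout; potency for loss of cell viability measured by luminescence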
# [5] = growth suppression of beta-catenin-knockout colon cells, dose response, cell-based, HCT116, human colon tumor (AID 1045); assay type: functional;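 further: HCT116 colon tumor cells with beta catenin knocked out; cells exposed to compound for 60 hours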
# [6] = P. falciparum Dd2 growth inhibitors, dose response, SYBR Green, cherry-picked samples (AID 1159567); assay type: functional, cell-based
# [7] = target: T2, Carboxy-terminal domain RNA polymerase II polypeptide A small phosphatase 1 (Homo sapiens, UniProt Q9GZU7); experiment: inhibitors of CTDSP1, concentration-response testing, biochemical assay, absorbance-based, actives from ultra-high-throughput screening (AID 540297); assay type: functional
# T2 sequence (Q9GZU7 whole entry): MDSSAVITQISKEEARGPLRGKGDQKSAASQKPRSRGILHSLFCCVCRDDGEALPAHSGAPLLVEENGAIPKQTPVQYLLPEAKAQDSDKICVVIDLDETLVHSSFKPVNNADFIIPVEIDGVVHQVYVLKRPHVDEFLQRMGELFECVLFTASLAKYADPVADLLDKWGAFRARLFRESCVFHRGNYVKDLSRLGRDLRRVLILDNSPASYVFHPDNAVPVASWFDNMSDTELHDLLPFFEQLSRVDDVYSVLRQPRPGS
# [8] = tested on: INS1; experiment: beta cell apoptosis inhibitors, cytokine rescue, dose response, luminescence, retest (AID 449756); assay type: functional, cell-based; settings: Rattus norvegicus;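 further: cell death triggered by IL-1 beta plus TNF-alpha plus IFN-gamma mixture; protective hits raise ATP signal compared with cytokine alone wells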
# [9] = target: Large T antigen (Simian virus 40, UniProt P03070); assay type: functional, Betapolyomavirus macacae;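 further: Confirmatory-stage PubChem screen for compounds that inhibit SV40 T antigen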
# [10] = target: T3, Rac GTPase-activating protein 1 (Homo sapiens, UniProt Q9H0H5); experiment: MgcRacGAP GTPase-activating activity inhibitors, confirmation, biochemical, ADP Hunter fluorescence, primary and confirmatory (AID 624330); assay type: functional
# T3 sequence (Q9H0H5 whole entry): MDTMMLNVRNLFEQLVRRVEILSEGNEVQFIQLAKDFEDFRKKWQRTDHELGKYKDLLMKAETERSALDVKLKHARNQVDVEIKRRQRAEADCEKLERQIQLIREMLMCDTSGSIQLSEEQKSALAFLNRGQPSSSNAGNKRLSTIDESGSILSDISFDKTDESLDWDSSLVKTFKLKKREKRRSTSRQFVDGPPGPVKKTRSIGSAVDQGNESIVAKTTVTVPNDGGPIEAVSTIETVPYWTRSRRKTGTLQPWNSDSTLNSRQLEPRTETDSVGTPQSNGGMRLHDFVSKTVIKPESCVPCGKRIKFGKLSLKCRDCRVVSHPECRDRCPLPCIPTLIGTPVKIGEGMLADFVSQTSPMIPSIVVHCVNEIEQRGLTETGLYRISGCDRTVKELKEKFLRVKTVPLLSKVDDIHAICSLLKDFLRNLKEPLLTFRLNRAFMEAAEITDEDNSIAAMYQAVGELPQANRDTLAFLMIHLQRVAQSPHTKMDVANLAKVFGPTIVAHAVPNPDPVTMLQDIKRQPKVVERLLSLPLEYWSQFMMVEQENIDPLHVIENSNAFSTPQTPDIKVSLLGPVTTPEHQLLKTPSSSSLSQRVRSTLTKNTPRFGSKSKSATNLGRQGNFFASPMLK
# [11] = target: T4, Streptokinase A (Streptococcus pyogenes serotype M1, UniProt P10520); experiment: S. pyogenes streptokinase expression inhibitors, potency, dose response, plasminogen activation absorbance, OD405 (AID 1914); assay type: functional, Streptococcus pyogenes M1 GAS;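 further: secreted streptokinase activity via plasminogen activation per viability signal from cell pellet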
# T4 sequence (P10520 whole entry): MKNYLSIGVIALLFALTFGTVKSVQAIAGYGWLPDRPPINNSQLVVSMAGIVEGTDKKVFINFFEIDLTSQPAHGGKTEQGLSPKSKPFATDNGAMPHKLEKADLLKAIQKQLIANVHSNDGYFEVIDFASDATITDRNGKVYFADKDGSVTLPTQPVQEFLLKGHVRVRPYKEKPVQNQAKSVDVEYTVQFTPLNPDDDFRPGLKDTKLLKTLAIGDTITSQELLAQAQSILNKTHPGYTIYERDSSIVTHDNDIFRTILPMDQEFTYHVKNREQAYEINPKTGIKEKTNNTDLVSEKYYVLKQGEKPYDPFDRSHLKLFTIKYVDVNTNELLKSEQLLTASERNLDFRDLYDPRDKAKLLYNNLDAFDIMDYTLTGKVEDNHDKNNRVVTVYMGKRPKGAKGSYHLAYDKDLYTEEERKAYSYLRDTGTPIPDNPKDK
# [12] = tested on: Streptococcus; experiment: Group A Streptococcus viability loss, dose response, counter-screen for streptokinase expression inhibitor project, luminescence, BacTiterGlo (AID 1915); assay type: functional, organism-based;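 further: potency for reduction of bacterial viability or growth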
# [13] = cells; assay type: functional, cell-based
# [14] = cells; assay type: functional, cell-based; remark: listed apart in the source
# [15] = Shn3 3'UTR reporter inhibitors, dose response, cell-based, Clone20 osteoblasts, firefly luciferase, cherry-picked (AID 624132); assay type: functional;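 further: firefly luciferase luminescence from reporter carrying the Shn3 3'UTR in osteoblasts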
# [16] = HepG2 cell cytotoxicity, dose response, cytotoxicity control for Shn3 inhibitor project, CellTiter-Glo, cherry-picked (AID 624134); assay type: functional, cell-based
# [17] = HEp-2 cell cytotoxicity, dose response, cytotoxicity control for RSV inhibitor project, HTS (AID 2410); assay type: functional; settings: human respiratory syncytial virus
# [18] = target: T5, RNA-binding protein pos-1 (Caenorhabditis elegans, UniProt G5EF15); experiment: inhibitors of POS-1/mex-3 RNA binding, dose response, biochemical, fluorescence polarization (AID 1964);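 further: purified POS-1 fused to maltose binding protein made in E. coli; potency of compounds blocking POS-1 binding to fluorescent RNA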
# T5 sequence (G5EF15 whole entry): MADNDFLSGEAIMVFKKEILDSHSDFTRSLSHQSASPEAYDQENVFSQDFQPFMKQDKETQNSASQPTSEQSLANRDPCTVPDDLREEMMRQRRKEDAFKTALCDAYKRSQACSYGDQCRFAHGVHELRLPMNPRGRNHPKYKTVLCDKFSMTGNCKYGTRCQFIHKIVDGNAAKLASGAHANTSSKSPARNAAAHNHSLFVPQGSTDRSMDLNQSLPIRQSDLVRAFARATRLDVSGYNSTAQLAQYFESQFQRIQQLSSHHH
# [19] = target: T6, Zinc finger protein mex-5 (Caenorhabditis elegans, UniProt Q9XUB2); experiment: MEX-5/TCR-2 RNA interaction inhibitors, dose response, biochemical, C. elegans, fluorescence polarization (AID 1960)
# T6 sequence (Q9XUB2 whole entry): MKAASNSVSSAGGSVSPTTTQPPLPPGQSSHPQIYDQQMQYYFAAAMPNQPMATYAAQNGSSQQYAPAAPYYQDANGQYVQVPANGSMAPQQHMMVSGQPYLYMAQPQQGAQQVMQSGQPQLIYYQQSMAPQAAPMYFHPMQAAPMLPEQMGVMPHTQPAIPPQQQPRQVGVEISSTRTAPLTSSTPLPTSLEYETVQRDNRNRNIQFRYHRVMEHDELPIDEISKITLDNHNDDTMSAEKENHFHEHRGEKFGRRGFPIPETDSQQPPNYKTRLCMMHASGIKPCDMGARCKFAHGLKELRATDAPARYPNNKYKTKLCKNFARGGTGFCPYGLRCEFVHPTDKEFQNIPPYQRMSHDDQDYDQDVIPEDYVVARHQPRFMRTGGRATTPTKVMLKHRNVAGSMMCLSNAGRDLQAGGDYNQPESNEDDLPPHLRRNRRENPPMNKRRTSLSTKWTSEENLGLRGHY
# Chain of Large T antigen (P03070 whole entry): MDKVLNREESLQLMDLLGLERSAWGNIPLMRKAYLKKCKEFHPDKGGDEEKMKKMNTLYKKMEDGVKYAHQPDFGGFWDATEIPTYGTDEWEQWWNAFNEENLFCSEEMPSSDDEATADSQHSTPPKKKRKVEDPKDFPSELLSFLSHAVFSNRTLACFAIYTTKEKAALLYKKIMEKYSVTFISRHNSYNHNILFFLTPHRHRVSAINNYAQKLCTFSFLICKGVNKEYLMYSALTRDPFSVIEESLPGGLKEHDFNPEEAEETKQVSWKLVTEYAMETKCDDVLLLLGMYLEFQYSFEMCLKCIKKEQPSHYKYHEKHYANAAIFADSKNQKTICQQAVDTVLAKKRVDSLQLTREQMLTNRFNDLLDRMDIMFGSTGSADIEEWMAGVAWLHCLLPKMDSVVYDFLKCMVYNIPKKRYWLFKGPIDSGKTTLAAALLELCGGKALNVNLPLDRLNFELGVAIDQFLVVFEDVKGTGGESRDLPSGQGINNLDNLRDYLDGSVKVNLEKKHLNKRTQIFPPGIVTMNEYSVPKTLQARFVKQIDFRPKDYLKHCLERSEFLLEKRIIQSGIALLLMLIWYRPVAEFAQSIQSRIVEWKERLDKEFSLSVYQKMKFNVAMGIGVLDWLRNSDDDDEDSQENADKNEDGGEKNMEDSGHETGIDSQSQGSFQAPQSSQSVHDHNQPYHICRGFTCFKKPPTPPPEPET
# Chain of Paired box protein Pax-8 (Q06710 whole entry): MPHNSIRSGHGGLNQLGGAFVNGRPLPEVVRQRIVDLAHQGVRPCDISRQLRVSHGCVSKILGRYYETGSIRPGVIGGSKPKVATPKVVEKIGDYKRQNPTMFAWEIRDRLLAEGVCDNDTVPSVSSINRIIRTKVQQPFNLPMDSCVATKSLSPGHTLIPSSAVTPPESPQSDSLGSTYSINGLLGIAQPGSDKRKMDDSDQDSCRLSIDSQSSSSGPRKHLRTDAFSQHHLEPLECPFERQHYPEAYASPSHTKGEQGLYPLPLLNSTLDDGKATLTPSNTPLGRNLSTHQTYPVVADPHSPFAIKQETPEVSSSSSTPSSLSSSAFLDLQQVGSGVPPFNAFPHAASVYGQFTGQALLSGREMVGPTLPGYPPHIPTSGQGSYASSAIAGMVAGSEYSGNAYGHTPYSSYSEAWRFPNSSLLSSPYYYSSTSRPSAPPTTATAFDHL
smiles,measurement,setting,value
Nc1ncc(-c2ccc(-c3ccccc3)cc2F)cc1-c1ccccc1F,IC50,[1],> 100 µM (inactive)
CC(=O)c1ccc([C@H]2C[C@@]34CN(C(=O)OC(C)(C)C)S(=O)(=O)[C@H]3C[C@H]2O4)cc1,AC50,[2],36.6 µM (active)
OC[C@H]1O[C@@H](n2cnc3c(NCc4ccco4)ncnc32)[C@H](O)[C@@H]1O [KINETIN RIBOSIDE],AC50,[3],2.25 µM (active)
COc1ccc(NC2=NC(=S)N(c3ccc(C)cc3)C23CCCCC3)cc1,EC50,[4],3.42 µM (active)
same,EC50,[5],2.47 µM (active)
COc1ccc(CC(=O)Nc2nnc(SCc3ccccc3)s2)cc1S(=O)(=O)N1CCOCC1,IC50,[1],> 100 µM (inactive)
COc1ccccc1-c1ccccc1[C@H]1[C@H](C#N)N(C(=O)C2CCC2)[C@H]1CO,AC50,[6],12 µM (active)
COc1ccc(S(=O)(=O)NCCSC(C)(C)C)c(Cl)c1Cl,IC50,[7],8.61 µM (active)
COc1ccc(NC(=O)Nc2ccc3c(c2)CC(=O)N([C@H](C)CO)C[C@H](C)[C@@H](CN(C)CC2CCCCC2)O3)cc1,AC50,[6],4.53 µM (active)
COc1ccc(-c2ccc([C@@H]3[C@H]4CN(C(=O)NC(C)C)CC(=O)N4[C@H]3CO)cc2)cc1,AC50,[6],10 µM (active)
COc1cc2cnc(-c3ccccc3)c(-c3cc(OC)c(OC)c(OC)c3)c2cc1OC,IC50,[7],67.2 µM (active)
CCCCNC(=O)COC(=O)c1cc(S(=O)(=O)N2CCCCCC2)ccc1OC,IC50,[1],> 100 µM (inactive)
CCn1c(SCC(=O)Nc2cc(C)on2)nc2sc3c(c2c1=O)CCCC3,EC50,[4],6.49 µM (active)
same,EC50,[5],13.2 µM (active)
same,AC50,[8],8.67 µM (active)
Nc1ncnc(O)c1/N=C/c1ccccc1,IC50,[9],28.6 µM (active)
Cc1ccc(C2C=NN(c3ccccc3)C2=O)cc1 (stereo not given),IC50,[9],31 µM (active)
same,IC50,[10],115 µM (active)
C[C@@H]1CCCCO[C@H](CN(C)C(=O)Nc2ccc(C(F)(F)F)cc2)[C@H](C)CN([C@@H](C)CO)C(=O)c2cc(NS(=O)(=O)c3ccc(Cl)cc3)ccc2O1,AC50,[3],16.4 µM (active)
C[C@@H]1CN([C@H](C)CO)S(=O)(=O)c2ccc(C#C[C@@H](C)O)cc2O[C@H]1CN(C)C(=O)Nc1ccccc1,AC50,[6],13 µM (active)
Cc1cccc(N2C(=O)/C(=C/Nc3ccc(O)cc3)c3ccccc3C2=O)n1,IC50,[9],7.67 µM (active)
O=C(O)c1cccc(S(=O)(=O)Nc2ccc3oc(=O)sc3c2)c1,IC50,[9],46.3 µM (active)
COc1ccc(NC(=O)Nc2ccc3c(c2)[C@H]2C[C@H](CC(=O)N4CCc5ccccc5C4)O[C@H](CO)[C@H]2O3)cc1,AC50,[6],7.78 µM (active)
CN(C)c1nc(SCc2ccccc2Cl)nc2c1CCCC2,EC50,[11],14 µM (active)
same,EC50,[12],> 150 µM (not active)
same,IC50,[1],> 100 µM (inactive)
Cc1ccc(NC(=O)N2CCC(NC(=O)c3cccc(C)c3)CC2)cc1,EC50,[13],> 350 µM (not active)
same,EC50,[14],> 350 µM (not active)
same,IC50,[7],10.5 µM (active)
CSc1ccc(-c2nnn(Cc3ccc(Br)cc3)n2)cc1,IC50,[1],> 100 µM (inactive)
C=CCOCCN1C(=O)C2C3C=CC(C2C1=O)C1C2C(=O)N(CCOCC=C)C(=O)C2C31 (stereo not given),IC50,[7],19.9 µM (active)
C=C1C(=O)O[C@H]2[C@H]1[C@H](OC(=O)CC(=O)O[C@@H]1C[C@@H](C)[C@@H]3C=CC(=O)[C@@]3(C)[C@H]3OC(=O)C(=C)[C@H]13)C[C@@H](C)[C@H]1C=CC(=O)[C@]12C,IC50,[9],52 µM (active)
same,AC50,[15],1.54 µM (active)
same,AC50,[16],> 70 µM (inactive)
N#CC1(NC(=O)COc2ccccc2[N+](=O)[O-])CCCCC1,IC50,[7],18.7 µM (active)
N#Cc1ccsc1NC(=O)COC(=O)CCS(=O)(=O)c1ccccc1,IC50,[7],8.32 µM (active)
CC/N=c1\scc(C)n1/N=C/c1cc(Br)c(O)c(OC)c1,CC50,[17],15.6 µM (active)
same,IC50,[9],8.55 µM (active)
same,IC50,[10],25.2 µM (active)
O=C(Nc1cccc([N+](=O)[O-])c1)c1cnccn1,IC50,[7],5.88 µM (active)
N=c1c2c(-c3ccccc3)c(-c3ccccc3)n(Cc3ccco3)c2ncn1CCO,EC50,[4],1.15 µM (active)
same,EC50,[5],1.27 µM (active)
O=C(COC(=O)c1cccc(S(=O)(=O)N2CCOCC2)c1)Nc1ncc(C(F)(F)F)cc1Cl,EC50,[13],> 350 µM (not active)
same,EC50,[14],> 350 µM (not active)
same,IC50,[1],> 100 µM (inactive)
CCOC(=O)/C(=N\Nc1ccc(F)cc1)C(=O)c1ccc([N+](=O)[O-])cc1,EC50,[13],> 350 µM (not active)
same,EC50,[14],> 350 µM (not active)
Cc1ccc(/C=C2\C(=O)NC(=S)N(c3cccc(F)c3)C2=O)o1,EC50,[18],63.5 µM (active)
same,EC50,[19],44.6 µM (active)
same,IC50,[9],36.7 µM (active)
